Data published in ChEMBL document CHEMBL1143512, “Antitubercular agents. Part 2: new thiolactomycin analogues active against Mycobacterium tuberculosis” (2005).
In brackets after ≈: the same amount, converted by molar mass.

The compounds below were run on Mycobacterium tuberculosis (assay: Minimum inhibitory concentration against Mycobacterium tuberculosis resistant clinical isolates; Range: 1-4 ug/ml).
Assay type: functional

**Q.** `COC(=O)CSCCCCCCCCOC1=C(C)C(=O)SC1C` (stereo not given) was tested. Which MIC did it give?
**A.** Its MIC is 4 µg/mL (≈ 11.1 µM).

These compounds were tested on Mycobacterium tuberculosis (assay: Minimum inhibitory concentration against Mycobacterium tuberculosis resistant clinical isolates; Range: 8->16 ug/ml).
Assay type: functional

**Q.** Which MIC does the source give for `NNC(=O)c1ccncc1` [ISONIAZID] here?
**A.** The MIC was over 16 µg/mL.

These compounds were tested on Mycobacterium tuberculosis (assay: Minimum inhibitory concentration against Mycobacterium tuberculosis resistant clinical isolates).
Assay type: functional

**Q.** With `CC1=C(OCCCCN2CCOCC2)C(C)SC1=O` (stereo not given) as the compound, how does the MIC read?
**A.** The MIC was over 16 µg/mL.

**Q.** With `CC1=C(OCCCCCN2CCOCC2)C(C)SC1=O` (stereo not given) as the compound, how does the MIC read?
**A.** The MIC was over 16 µg/mL.

**Q.** For `COC(=O)CSCCCOC1=C(C)C(=O)SC1C` (stereo not given), which MIC is on record?
**A.** The MIC was over 16 µg/mL.

**Q.** How did the MIC turn out when `COC(=O)CSCCCCCOC1=C(C)C(=O)SC1C` (stereo not given) was run?
**A.** Its MIC is over 16 µg/mL.

**Q.** For `CC1=C(OCCCCCCCCBr)C(C)SC1=O` (stereo not given), which MIC is on record?
**A.** The MIC was over 16 µg/mL.

**Q.** `CC1=C(OCCCCCCBr)C(C)SC1=O` (stereo not given) was tested. Which MIC did it give?
**A.** Its MIC is over 16 µg/mL.

**Q.** With `CC1=C(OCCCCCCCCN2CCOCC2)C(C)SC1=O` (stereo not given) as the compound, how does the MIC read?
**A.** The MIC was over 16 µg/mL.

**Q.** With `CC1=C(OCCCCCCCCCCN2CCN(C)CC2)C(C)SC1=O` (stereo not given) as the compound, how does the MIC read?
**A.** Its MIC is over 16 µg/mL.

**Q.** For `CC1=C(OCCCCN2CCN(C)CC2)C(C)SC1=O` (stereo not given), which MIC is on record?
**A.** Its MIC is over 16 µg/mL.

**Q.** Which MIC does the source give for `CC1=C(OCCCBr)C(C)SC1=O` (stereo not given) here?
**A.** Its MIC is over 16 µg/mL.

**Q.** How did the MIC turn out when `CC1=C(OCCCN2CCN(C)CC2)C(C)SC1=O` (stereo not given) was run?
**A.** The MIC was over 16 µg/mL.

**Q.** `CC1=C(OCCCCCBr)C(C)SC1=O` (stereo not given) was tested. Which MIC did it give?
**A.** Its MIC is over 16 µg/mL.

**Q.** For `COC(=O)CSCCCCOC1=C(C)C(=O)SC1C` (stereo not given), which MIC is on record?
**A.** Its MIC is over 16 µg/mL.

**Q.** `COC(=O)CSCCCCCCOC1=C(C)C(=O)SC1C` (stereo not given) was tested. Which MIC did it give?
**A.** The MIC was over 16 µg/mL.

**Q.** With `CC1=C(OCCCCCN2CCN(C)CC2)C(C)SC1=O` (stereo not given) as the compound, how does the MIC read?
**A.** Its MIC is over 16 µg/mL.

**Q.** How did the MIC turn out when `CC1=C(OCCCCBr)C(C)SC1=O` (stereo not given) was run?
**A.** Its MIC is over 16 µg/mL.

**Q.** With `CC1=C(OCCCCCCCCN2CCN(C)CC2)C(C)SC1=O` (stereo not given) as the compound, how does the MIC read?
**A.** Its MIC is over 16 µg/mL.

**Q.** `CC1=C(OCCCCCCN2CCN(C)CC2)C(C)SC1=O` (stereo not given) was tested. Which MIC did it give?
**A.** The MIC was over 16 µg/mL.

**Q.** `CC1=C(OCCCCCCN2CCOCC2)C(C)SC1=O` (stereo not given) was tested. Which MIC did it give?
**A.** The MIC was over 16 µg/mL.

**Q.** For `CC1=C(OCCCCCCCCCCN2CCOCC2)C(C)SC1=O` (stereo not given), which MIC is on record?
**A.** Its MIC is over 16 µg/mL.

**Q.** With `COC(=O)CSCCCCCCCCCCOC1=C(C)C(=O)SC1C` (stereo not given) as the compound, how does the MIC read?
**A.** The MIC was over 16 µg/mL.

**Q.** With `CC1=C(OCCCN2CCOCC2)C(C)SC1=O` (stereo not given) as the compound, how does the MIC read?
**A.** Its MIC is over 16 µg/mL.

The compounds below were run on Mycobacterium tuberculosis (assay: Minimum inhibitory concentration against Mycobacterium tuberculosis resistant clinical isolates; Range:4-16 ug/ml).
Assay type: functional

**Q.** `CC1=C(OCCCCCCCCCCBr)C(C)SC1=O` (stereo not given) was tested. Which MIC did it give?
**A.** The MIC was 16 µg/mL (≈ 44 µM).
